Some test systems named below: MALME-3M melanoma; NCI-H522 lung; ACHN renal; TK-10 renal; SN12C renal; M14 melanoma; SF-539 CNS; OVCAR-3 ovarian.
What all share (assay): inhibition of tumour cell growth, NCI panel, 48 h

“And” between values parts separate entries of the source, which are not always exact repeats. Identical values can stand only once.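 Grown in 96-well plates, cells were treated for 48 hours with each compound at five concentrations. Insufficient inhibition: endpoint recorded as highest concentration tested. GI50 marks 50% less growth. The concentration for full growth arrest is given as TGI.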 Bounds are passed on as bounds.

Regarding `[Cl][Hg][c]1cc(Br)cc(Br)c1`, the GI50 in the assay on MALME-3M melanoma was 1.69 µM; in the assay on NCI-H522 lung, 0.493 µM; in the assay on ACHN renal, 3.83 µM; in the assay on TK-10 renal, 2.9 µM; with SN12C renal, 1.61 µM; with M14 melanoma it was 2.12 µM. Moreover, the GI50 in the assay with SF-539 CNS was 1.65 µM; in the assay with OVCAR-3 ovarian, 1.19 µM. The TGI with MALME-3M melanoma was determined as 3.28 µM; with NCI-H522 lung, 2.27 µM; in the assay with ACHN renal it was 14.8 µM; in the assay with TK-10 renal, 6.35 µM; with SN12C renal, 3.56 µM; with M14 melanoma, 6.32 µM. For the same compound, the figures for the TGI in the assay on SF-539 CNS and in the assay with OVCAR-3 ovarian were 3.31 µM and 2.46 µM, respectively.

Regarding `CCN(CC)CCC(CNc1ccnc2cc(Cl)ccc12)c1ccc(OC)cc1` (centres undefined), the GI50 in the assay on MALME-3M melanoma is 1.95 µM and 1.86 µM; with NCI-H522 lung, 3.29 µM and 2.16 µM; in the assay on ACHN renal it was 5.24 µM and 2.77 µM; in the assay with TK-10 renal it was 3.97 µM and 1.99 µM; in the assay with SN12C renal it was 12.9 µM and 11.4 µM; with M14 melanoma, 1.86 µM and 1.88 µM. For the same compound, the GI50 in the assay on SF-539 CNS is 1.56 µM and 1.7 µM; in the assay on OVCAR-3 ovarian, 16.7 µM and 6.96 µM. The TGI with MALME-3M melanoma is 3.76 µM and 3.64 µM; in the assay on NCI-H522 lung, 13.1 µM and 8.47 µM; in the assay with ACHN renal, 19.1 µM and 9.6 µM; in the assay on TK-10 renal it was 14.2 µM and 5.15 µM; in the assay on SN12C renal, 34.3 µM and 37.8 µM; with M14 melanoma it was 3.61 µM and 3.73 µM. Moreover, the TGI in the assay on SF-539 CNS is 3.17 µM and 3.6 µM; with OVCAR-3 ovarian, 66.3 µM and 33.1 µM.

With `COc1ccc2c(c1)CCCC(Br)C2=O` (centres undefined), the TGI in the assay with MALME-3M melanoma was 21.5 µM; in the assay with NCI-H522 lung, 0.837 µM; in the assay with ACHN renal, 20.7 µM; with TK-10 renal, 16.8 µM; with SN12C renal, 9.13 µM; in the assay on M14 melanoma, 16.5 µM. Further, the TGI was over 19.9 µM in the assay on SF-539 CNS and 37.7 µM in the assay on OVCAR-3 ovarian.

For `Cc1nc2c(-c3cnc(N)nc3)nc(N3CCOCC3)nc2n1C(C)C`, the TGI in the assay with MALME-3M melanoma was 0.46 µM and 0.225 µM; in the assay with ACHN renal, over 100 µM; in the assay with TK-10 renal it was 0.6 µM and 0.505 µM; with SN12C renal, over 100 µM; with M14 melanoma it was 2.12 µM and 5.91 µM; in the assay on SF-539 CNS, 1.17 µM and 0.481 µM. Further, in the assay with OVCAR-3 ovarian, the TGI is 1.64 µM and 1.92 µM. The GI50 in the assay on NCI-H522 lung is 0.137 µM and 0.138 µM.

`O=C(Nc1ccc(Cl)cc1F)c1ccccc1O`: the GI50 in the assay with MALME-3M melanoma was 2.26 µM; in the assay on NCI-H522 lung, 2.45 µM; with ACHN renal, 2.36 µM; in the assay on TK-10 renal it was 4.54 µM; in the assay with SN12C renal, 2.24 µM; with M14 melanoma, 3.45 µM. In addition, the GI50 was 2.94 µM in the assay with SF-539 CNS and 2.98 µM in the assay with OVCAR-3 ovarian. Moreover, the TGI in the assay with MALME-3M melanoma came to 8.8 µM; with NCI-H522 lung, 30 µM; with ACHN renal, 7.54 µM; in the assay with TK-10 renal, 47.1 µM; in the assay with SN12C renal, 8.71 µM; in the assay on M14 melanoma, 16.7 µM. The TGI in the assay with SF-539 CNS is 18.5 µM; in the assay with OVCAR-3 ovarian, over 100 µM.

On to `CCCCCCCCCCCCOC1C(C(COC2OC(C3COC(C)(C)O3)C3OC(C)(C)OC23)NC(=O)Nc2ccc(C(=O)O)cc2)OC2OC(C)(C)OC21` (centres undefined), for which the GI50 was 2.88 µM in the assay on MALME-3M melanoma; 2.56 µM in the assay on NCI-H522 lung; 3.56 µM in the assay with ACHN renal; 4.13 µM in the assay with TK-10 renal; 3.45 µM in the assay on SN12C renal; 2.45 µM in the assay with M14 melanoma. For the same compound, the GI50 with SF-539 CNS is 1.72 µM; in the assay with OVCAR-3 ovarian, 2.48 µM. For the same compound, the TGI came to 6.91 µM in the assay with MALME-3M melanoma; 6.93 µM in the assay on NCI-H522 lung; 12.2 µM with ACHN renal; 14.4 µM in the assay on TK-10 renal; 12.4 µM in the assay on SN12C renal; 6.71 µM with M14 melanoma. The TGI in the assay on SF-539 CNS turned out to be 3.39 µM; with OVCAR-3 ovarian, 7.49 µM.

On to `O=C(Cc1ccc(/C=C/C(=O)c2ncc[nH]2)cc1)Nc1cc(F)c(F)c(F)c1`, for which the GI50 is 4.33 µM in the assay on MALME-3M melanoma; 3.46 µM in the assay on NCI-H522 lung; 3.89 µM in the assay on ACHN renal; 4.51 µM in the assay on TK-10 renal; 4.27 µM in the assay on SN12C renal; 4.06 µM with M14 melanoma. For the same compound, the results for the GI50 in the assay on SF-539 CNS and in the assay on OVCAR-3 ovarian were 3.56 µM and 2.81 µM, respectively. For the same compound, the TGI worked out at 12.2 µM in the assay with MALME-3M melanoma; 8.01 µM with NCI-H522 lung; 7.23 µM in the assay on ACHN renal; 10.1 µM in the assay with TK-10 renal; 11.1 µM with SN12C renal; 8.36 µM with M14 melanoma. The TGI stood at 6.95 µM in the assay on SF-539 CNS and 6.14 µM with OVCAR-3 ovarian.

Regarding `COc1ccc(/C=C(/C(=O)N2CCN(c3ccccc3)CC2)c2cc(OC)c(OC)c(OC)c2)cc1O`, the GI50 in the assay on MALME-3M melanoma is 24.7 µM; with NCI-H522 lung, 0.128 µM; with ACHN renal, 0.457 µM; with TK-10 renal, 23.4 µM; with SN12C renal, 0.564 µM; in the assay with M14 melanoma it was 0.315 µM. The GI50 is 0.205 µM in the assay on SF-539 CNS and 0.322 µM in the assay with OVCAR-3 ovarian. Moreover, the TGI was over 100 µM in the assay on MALME-3M melanoma; 0.594 µM in the assay on NCI-H522 lung; over 100 µM in the assay with ACHN renal; over 100 µM in the assay on TK-10 renal; over 100 µM with SN12C renal; 24 µM with M14 melanoma. The TGI is 0.708 µM with SF-539 CNS and 6.76 µM in the assay on OVCAR-3 ovarian.

With `COc1ccc(CN2C(=O)/C(=C\C(=O)c3ccc(OCCN4CCCCC4)cc3)c3ccccc32)cc1`, the GI50 with MALME-3M melanoma was 1.82 µM; with NCI-H522 lung it was 1.97 µM; with ACHN renal, 1.69 µM; in the assay on TK-10 renal, 1.69 µM; in the assay on SN12C renal, 1.74 µM; in the assay on M14 melanoma, 1.83 µM. Besides, the GI50 was 1.9 µM with SF-539 CNS and 1.93 µM in the assay with OVCAR-3 ovarian. In addition, the TGI was determined as 3.41 µM in the assay with MALME-3M melanoma; 3.78 µM with NCI-H522 lung; 3.05 µM in the assay with ACHN renal; 3.18 µM in the assay on TK-10 renal; 3.5 µM in the assay on SN12C renal; 3.85 µM in the assay with M14 melanoma. Further, the TGI stood at 3.67 µM with SF-539 CNS and 3.94 µM in the assay with OVCAR-3 ovarian.

As to `CCCCCCCCCCCCCC1=NC(C)(C)CN1C(C)C`, the GI50 in the assay on MALME-3M melanoma was 1.7 µM; in the assay with NCI-H522 lung, 1.58 µM; in the assay with ACHN renal, 1.64 µM; with TK-10 renal, 1.58 µM; with SN12C renal, 1.59 µM; in the assay with M14 melanoma, 1.72 µM. For the same compound, the GI50 in the assay with SF-539 CNS is 1.65 µM; in the assay with OVCAR-3 ovarian, 1.48 µM. Further, the TGI was found to be 3.41 µM with MALME-3M melanoma; 2.97 µM with NCI-H522 lung; 2.99 µM in the assay on ACHN renal; 3 µM in the assay with TK-10 renal; 2.98 µM in the assay on SN12C renal; 3.09 µM in the assay with M14 melanoma. Moreover, the values for the TGI with SF-539 CNS and in the assay with OVCAR-3 ovarian were 3.01 µM and 2.8 µM, respectively.

(Values after PubChem BioAssay (NCI).)
